Assay results as given in US20140073651A1, “BENZAMIDE DERIVATIVES AS P2X7 RECEPTOR ANTAGONISTS” (Actelion Pharmaceuticals Ltd., priority 2011, published 2014).
pIC50: −log10 of the molar value.

Molecular target: T1, human recombinant P2X7 receptor (Homo sapiens, UniProt Q99572)
T1 construct: expressed in transfected cells
T1 sequence (Q99572 1-595): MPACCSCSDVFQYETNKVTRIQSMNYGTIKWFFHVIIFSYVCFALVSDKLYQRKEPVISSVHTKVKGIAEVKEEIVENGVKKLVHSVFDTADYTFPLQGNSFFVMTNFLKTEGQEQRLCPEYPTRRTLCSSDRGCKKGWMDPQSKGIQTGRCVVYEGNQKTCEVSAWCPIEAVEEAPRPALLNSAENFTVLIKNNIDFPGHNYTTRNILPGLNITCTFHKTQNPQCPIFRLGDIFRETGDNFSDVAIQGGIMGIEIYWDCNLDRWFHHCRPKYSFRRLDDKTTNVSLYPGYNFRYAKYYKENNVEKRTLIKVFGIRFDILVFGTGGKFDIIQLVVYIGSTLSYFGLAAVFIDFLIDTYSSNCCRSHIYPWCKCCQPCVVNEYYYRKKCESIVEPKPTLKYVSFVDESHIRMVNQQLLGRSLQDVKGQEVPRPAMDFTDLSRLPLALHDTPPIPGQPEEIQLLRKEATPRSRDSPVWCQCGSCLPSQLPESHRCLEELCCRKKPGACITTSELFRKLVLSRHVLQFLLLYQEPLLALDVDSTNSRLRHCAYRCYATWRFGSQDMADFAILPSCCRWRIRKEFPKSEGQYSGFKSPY
Assay: YO-PRO assay (YO-PRO-1 uptake) in HEK cells stably expressing P2X7
Type: cell-based
Conditions: HEK-293 cells expressing human recombinant P2X7 receptor; ATP 250 μM, 90 minutes; YO-PRO-1 fluorescence (FLIPR tetra); read-out: IC50 (antagonistic activity with respect to the P2X7 receptor)
Method in brief: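 Antagonist serially diluted (duplicates) on P2X7-expressing HEK cells in buffer with 0.5 μM YO-PRO-1; dye uptake followed on FLIPR Tetra over four time points. IC50 from maximum fluorescence intensity versus compound concentration.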

| SMILES | pIC50 |
| --- | --- |
| COCCN(c1ccc(Cl)c(C(=O)NCC2(O)CCCCC2)c1)c1ncccn1 [Example 71, 2-Chloro-N-(1-hydroxy-cyclohexylmethyl)-5-[(2-methoxy-ethyl)-pyrimidin-2-yl-amino]-benzamide] | 5.70 |
| CN(C)c1cccc(Oc2ccc(Cl)c(C(=O)NCC3(O)CCCCC3)c2)n1 [Example 110, 2-Chloro-5-(6-dimethylamino-pyridin-2-yloxy)-N-(1-hydroxy-cyclohexylmethyl)-benzamide] | 6.91 |
| COc1nccc(Cc2ccc(Cl)c(C(=O)NCC3(O)CCCCC3)c2)n1 [Example 148, 2-Chloro-N-(1-hydroxy-cyclohexylmethyl)-5-(2-methoxy-pyrimidin-4-ylmethyl)-benzamide] | 6.46 |
| COCCN(c1ccc(Cl)c(C(=O)NCC2(O)CCCCC2)c1)c1ccnc(OC)n1 [Example 34, 2-Chloro-N-(1-hydroxy-cyclohexylmethyl)-5-[(2-methoxy-ethyl)-(2-methoxy-pyrimidin-4-yl)-amino]-benzamide] | 6.07 |
| CSc1cc(N(C)c2ccc(Cl)c(C(=O)NCC3(O)CCCCC3)c2)ncn1 [Example 65, 2-Chloro-N-(1-hydroxy-cyclohexylmethyl)-5-[methyl-(6-methylsulfanyl-pyrimidin-4-yl)-amino]-benzamide] | 6.69 |
| O=C(NCC1(O)CCCCC1)c1cc(Oc2cc(F)ccn2)ccc1Cl [Example 103, 2-Chloro-5-(4-fluoro-pyridin-2-yloxy)-N-(1-hydroxy-cyclohexylmethyl)-benzamide] | 7.34 |
| O=C(NCC1(O)CCC(F)(F)CC1)c1cc(Sc2cc[nH]c(=O)n2)ccc1Cl [Example 138, 2-Chloro-N-(4,4-difluoro-1-hydroxy-cyclohexylmethyl)-5-(2-oxo-1,2-dihydro-pyrimidin-4-ylsulfanyl)-benzamide] | 8.00 |
| COc1nccc(Sc2ccc(Cl)c(C(=O)NCC3(O)CCCCC3)c2)n1 [Example 139, 2-Chloro-N-(1-hydroxy-cyclohexylmethyl)-5-(2-methoxy-pyrimidin-4-ylsulfanyl)-benzamide] | 7.13 |
| CNc1nccc(Oc2ccc(Cl)c(C(=O)NCC3(O)CCCCC3)c2)n1 [Example 116, 2-Chloro-N-(1-hydroxy-cyclohexylmethyl)-5-(2-methylamino-pyrimidin-4-yloxy)-benzamide] | 6.76 |
| CN(c1ccc(Cl)c(C(=O)NCC2(O)CCCCC2)c1)c1ccn(C)c(=O)n1 [Example 19, 2-Chloro-N-(1-hydroxy-cyclohexylmethyl)-5-[methyl-(1-methyl-2-oxo-1,2-dihydro-pyrimidin-4-yl)-amino]-benzamide] | 6.38 |
| O=C(NCC1(O)CCCCC1)c1cc(Oc2cccc(F)n2)ccc1Cl [Example 102, 2-Chloro-5-(6-fluoro-pyridin-2-yloxy)-N-(1-hydroxy-cyclohexylmethyl)-benzamide] | 7.43 |
| O=C(NCC1(O)CCCCC1)c1cc(Oc2ccncc2)ccc1Cl [Example 106, 2-Chloro-N-(1-hydroxy-cyclohexylmethyl)-5-(pyridin-4-yloxy)-benzamide] | 5.77 |
| CN(c1ccc(Cl)c(C(=O)NCC2(O)CCCCC2)c1)c1cc(Cl)[nH]c(=O)n1 [Example 64, 2-Chloro-5-[(6-chloro-2-oxo-1,2-dihydro-pyrimidin-4-yl)-methyl-amino]-N-(1-hydroxy-cyclohexylmethyl)-benzamide] | 6.04 |
| COCCn1c(Nc2ccc(Cl)c(C(=O)NCC3(O)CCCCC3)c2)cccc1=O [Example 97, 2-Chloro-N-(1-hydroxy-cyclohexylmethyl)-5-[1-(2-methoxy-ethyl)-6-oxo-1,6-dihydro-pyridin-2-ylamino]-benzamide] | 6.50 |
